The text below walks through data of patent publication US5696151A, “Compounds useful for the inhibition of the replication of HIV-1 and HIV-1 mutants” (priority 1995, dated 1997).

A word on the EC50: it is the midpoint of the concentration-response curve. The term CC50 denotes the concentration giving 50% cytotoxicity. The low end stands for greater toxicity to the cells, the high end for lower toxicity to the cells.

In brackets after ≈: the same amount, converted by molar mass.

Common to all, as to assay type: cell-based
One data set has as its system HIV-1/188-Leu. The data set is described as follows: Inhibition of HIV-1 induced syncytium formation in CEM cells, RT mutant 188-Leu. To be noted: Human immunodeficiency virus 1, CCRF-CEM, 96 h, Table 2B, day 4, averages of 2 to 3 independent experiments, read-out: Antiviral Activity of Comparative Compounds EC50, 188-Leu. The text has this: (§1) CEM cells were obtained from the American Tissue Cell Culture Collection (Rockville, Md.). HIV-1(IIIB) was originally obtained from the culture supernatant of persistently HIV-1-infected H9 cells and was provided by R. C. Gallo and M. Popovic (National Cancer Institute, National Institutes of Health, Bethesda, Md.). […] 67: 5353-5359 (1993); HIV-1/Lys-138 ("Lys-138") was selected for resistance against TSAO-m^3T as described in Balzarini et al, Virology 192: 246-253 (1993) and Balzarini et al, Proc. Nat. Acad. Sci. USA 90: 6952-6956 (1993); HIV-1/181-Cys ("181-Cys") was selected for resistance against pyridinone L-697,661 as described in Balzarini et al, Virology 192: 246-253 (1993); and HIV-1/188-His ("188-His") was selected for resistance against HEPT as described in Balzarini et al, Mol. Pharmocol. 44: 694-701 (1993). 188-His was then further converted to HIV-1/188-Leu "188-Leu") upon further passage in cell culture in the absence of the HEPT.
(§2) CEM cells were suspended at ≈300,000 cells per ml of culture medium and infected with approximately 100 CCID50 (CCID50 being the 50% cell culture infective dose) of HIV-1(IIIB) or one of the HIV-1 RT mutant strains described above. Then 100 μl of the infected cell suspensions was added to 200 μl microtiter plate wells containing 100 μl of appropriate serial (5-fold) dilutions of the test compounds. The inhibitory effect of the test compounds on HIV-1 induced syncytium formation in CEM cells was examined microscopically on day 4 post infection.

Another data set can be described thus: in vitro. To be noted: human, cem cells, CC50 (50% cytostatic concentration), Table 2B; CEM cell proliferation; averages of 2 to 3 independent experiments. In a few lines:
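Value is the 50% cytostatic concentration, the compound concentration that inhibits CEM cell proliferation by 50%. HIV-1(IIIB) and NNRTI-resistant variants selected in culture (Lys-138, 181-Cys, 188-His, 188-Leu) were used alongside.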

In the next data set the test system is HIV-1/181-Cys. The data set is described as follows: Inhibition of HIV-1 induced syncytium formation in CEM cells, RT mutant 181-Cys. To be noted: Table 2B, day 4, averages of 2 to 3 independent experiments; for EC50: Human immunodeficiency virus 1, CCRF-CEM, 96 h, read-out: Antiviral Activity of Comparative Compounds EC50, 181-Cys. The procedure, abridged:
(§3)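 Read-out: microscopic scoring of syncytium formation on day 4 post infection. CEM cells at ≈300,000/ml, infected with ~100 CCID50 of HIV-1(IIIB) or RT mutant virus, were cultured with 5-fold serial compound dilutions.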

The next data set relates to HIV-1/Lys-138. The data set can be described thus: Inhibition of HIV-1 induced syncytium formation in CEM cells, RT mutant 138-Lys. The note with it: Table 2B, day 4, averages of 2 to 3 independent experiments; for EC50: Human immunodeficiency virus 1, CCRF-CEM, 96 h, read-out: Antiviral Activity of Comparative Compounds EC50, 138-Lys. The procedure, abridged: as §3
In another data set the test system is HIV-1/106-Ala. The data set can be described thus: Inhibition of HIV-1 induced syncytium formation in CEM cells, RT mutant 106-Ala. The note with it: Table 2B, day 4, averages of 2 to 3 independent experiments; for EC50: Human immunodeficiency virus 1, CCRF-CEM, 96 h, read-out: Antiviral Activity of Comparative Compounds EC50, 106-Ala. In a few lines:
as §3

The test system of another data set is HIV-1(IIIB). The data set is described as follows: Inhibition of HIV-1 induced syncytium formation in CEM cells, wild type. The note with it: Table 2B, WT = HIV-1(IIIB), day 4, averages of 2 to 3 independent experiments; for EC50: Human immunodeficiency virus 1, IIIB, CCRF-CEM, 96 h, read-out: Antiviral Activity of Comparative Compounds EC50, WT. The procedure, abridged: as §3

The next data set relates to HIV-1/103-Asn. The data set is described as follows: Inhibition of HIV-1 induced syncytium formation in CEM cells, RT mutant 103-Asn. The note with it: Human immunodeficiency virus 1, CCRF-CEM, 96 h, Table 2B, day 4, averages of 2 to 3 independent experiments, read-out: Antiviral Activity of Comparative Compounds EC50, 103-Asn.
From the text: as §1, §2

The subject of the next data set is HIV-1/100-Ile. The data set can be described thus: Inhibition of HIV-1 induced syncytium formation in CEM cells, RT mutant 100-Ile. To be noted: Table 2B, day 4, averages of 2 to 3 independent experiments; for EC50: Human immunodeficiency virus 1, CCRF-CEM, 96 h, read-out: Antiviral Activity of Comparative Compounds EC50, 100-Ile. In a few lines: as §3

Take `Cc1sccc1C(=S)Nc1ccc(Cl)c(C(=O)OC(C)C)c1` [Compound 16]: the EC50 was over 2 µg/mL in the data set on HIV-1/188-Leu; 0.1 µg/mL (≈ 0.283 µM) in the data set with HIV-1/181-Cys; 0.03 µg/mL (≈ 0.0848 µM) with HIV-1/Lys-138; 0.077 µg/mL (≈ 0.218 µM) in the data set with HIV-1/106-Ala; 0.0041 µg/mL (≈ 0.0116 µM) with HIV-1(IIIB); 0.33 µg/mL (≈ 0.932 µM) with HIV-1/103-Asn. Also, the 50% effective concentration (EC50) in the data set on HIV-1/100-Ile turned out to be 0.15 µg/mL (≈ 0.424 µM). Half-maximal cytotoxicity in the data set “in vitro” (CC50) was put at 5.9 µg/mL (≈ 16.7 µM).

Consider `Cc1occc1C(=S)Nc1ccc(Cl)c(SCC(=O)OC(C)(C)C)c1` [Compound 17], for which the 50% effective concentration (EC50) with HIV-1/188-Leu was at least 2 µg/mL; in the data set on HIV-1/181-Cys, 0.45 µg/mL (≈ 1.13 µM); in the data set with HIV-1/Lys-138 it was 0.18 µg/mL (≈ 0.452 µM); in the data set with HIV-1/106-Ala, 0.3 µg/mL (≈ 0.754 µM); in the data set with HIV-1(IIIB) it was 0.22 µg/mL (≈ 0.553 µM); in the data set on HIV-1/103-Asn, 0.73 µg/mL (≈ 1.83 µM). The EC50 in the data set on HIV-1/100-Ile amounted to 0.49 µg/mL (≈ 1.23 µM). Besides, in “in vitro”, the CC50 was 7 µg/mL (≈ 17.6 µM).

Turning to `CC1=C(C(=O)Nc2ccc(Cl)c(C=NOC(C)(C)C)c2)SCCO1` [Compound 18], the EC50 with HIV-1/188-Leu is over 2 µg/mL; with HIV-1/181-Cys it was 0.13 µg/mL (≈ 0.352 µM); in the data set on HIV-1/Lys-138, 0.22 µg/mL (≈ 0.596 µM); with HIV-1/106-Ala, 0.15 µg/mL (≈ 0.407 µM); with HIV-1(IIIB) it was 0.014 µg/mL (≈ 0.038 µM); in the data set with HIV-1/103-Asn, 0.33 µg/mL (≈ 0.895 µM). Further, in the data set with HIV-1/100-Ile, the EC50 is 0.33 µg/mL (≈ 0.895 µM). In the data set “in vitro”, this compound yielded a cytotoxic concentration (CC50) of 8.5 µg/mL (≈ 23 µM).

Take `CC=CCOc1cc(NC(=S)c2ccn(C)c2C)ccc1Cl` [Compound 19]: the 50% effective concentration (EC50) was over 2 µg/mL with HIV-1/188-Leu; 0.13 µg/mL (≈ 0.388 µM) in the data set with HIV-1/181-Cys; 0.6 µg/mL (≈ 1.79 µM) with HIV-1/Lys-138; 0.4 µg/mL (≈ 1.19 µM) in the data set with HIV-1/106-Ala; 0.17 µg/mL (≈ 0.508 µM) in the data set on HIV-1(IIIB); at least 2 µg/mL in the data set with HIV-1/103-Asn. Further, the half-maximal effective concentration (EC50) with HIV-1/100-Ile turned out to be 0.85 µg/mL (≈ 2.54 µM). The CC50 in the data set “in vitro” turned out to be 5.2 µg/mL (≈ 15.5 µM).

On to `Cc1sccc1C(=S)Nc1ccc(Cl)c(SCC(=O)OC(C)(C)C)c1` [Compound 20], for which the EC50 was over 2 µg/mL with HIV-1/188-Leu; 0.14 µg/mL (≈ 0.338 µM) in the data set with HIV-1/181-Cys; 0.43 µg/mL (≈ 1.04 µM) with HIV-1/Lys-138; 0.15 µg/mL (≈ 0.362 µM) in the data set with HIV-1/106-Ala; 0.13 µg/mL (≈ 0.314 µM) with HIV-1(IIIB); 0.44 µg/mL (≈ 1.06 µM) with HIV-1/103-Asn. Besides, in the data set with HIV-1/100-Ile, the EC50 turned out to be 0.34 µg/mL (≈ 0.821 µM). The same compound came in with a CC50 in “in vitro” of 5.4 µg/mL (≈ 13 µM).

Consider `Cc1sccc1C(=S)Nc1ccc(Cl)c(C(=O)OC(C(C)C)C(C)C)c1` [Compound 21], for which the 50% effective concentration (EC50) is over 2 µg/mL in the data set on HIV-1/188-Leu; 0.17 µg/mL (≈ 0.415 µM) in the data set on HIV-1/181-Cys; 0.11 µg/mL (≈ 0.268 µM) in the data set on HIV-1/Lys-138; 0.23 µg/mL (≈ 0.561 µM) in the data set with HIV-1/106-Ala; 0.008 µg/mL (≈ 0.0195 µM) in the data set on HIV-1(IIIB); 0.61 µg/mL (≈ 1.49 µM) in the data set on HIV-1/103-Asn. Further, in the data set on HIV-1/100-Ile, the EC50 worked out at 0.3 µg/mL (≈ 0.732 µM). The CC50 in the data set “in vitro” was 6 µg/mL (≈ 14.6 µM).

For `CC1=C(C(=O)Nc2ccc(Cl)c(C(=O)OC(C(C)C)C(C)C)c2)SCCO1` [Compound 22], the EC50 in the data set on HIV-1/188-Leu is over 2 µg/mL; in the data set with HIV-1/181-Cys, 0.18 µg/mL (≈ 0.437 µM); with HIV-1/Lys-138, 0.55 µg/mL (≈ 1.34 µM); with HIV-1/106-Ala it was 0.26 µg/mL (≈ 0.631 µM); with HIV-1(IIIB), 0.08 µg/mL (≈ 0.194 µM); with HIV-1/103-Asn it was 0.65 µg/mL (≈ 1.58 µM). Moreover, the EC50 in the data set on HIV-1/100-Ile was found to be 0.48 µg/mL (≈ 1.17 µM). In the data set “in vitro”, this compound showed a CC50 of 5.8 µg/mL (≈ 14.1 µM).

On to `Cc1sccc1C(=O)Nc1ccc(Cl)c(C(=O)OC2CCCCC2)c1` [Compound 23], for which the results for the EC50 in the data set on HIV-1/188-Leu and in the data set with HIV-1/103-Asn were over 2 µg/mL and at least 2 µg/mL, respectively. In addition, the half-maximal cytotoxic concentration (CC50) in “in vitro” was determined as 5.8 µg/mL (≈ 15.3 µM). Moreover, the “Antiviral Activity of Comparative Compounds EC50, 181-Cys” value in the data set on HIV-1/181-Cys came out at 0.27 µg/mL. Further, in the data set on HIV-1/Lys-138, the “Antiviral Activity of Comparative Compounds EC50, 138-Lys” value stood at 0.73 µg/mL. In addition, the “Antiviral Activity of Comparative Compounds EC50, 106-Ala” value with HIV-1/106-Ala turned out to be 0.22 µg/mL. In the data set with HIV-1(IIIB), the “Antiviral Activity of Comparative Compounds EC50, WT” value is 0.03 µg/mL. Also, the “Antiviral Activity of Comparative Compounds EC50, 100-Ile” value with HIV-1/100-Ile was found to be 0.7 µg/mL.

Regarding `CC1=C(C(=O)Nc2ccc(Cl)c(C=NOC(C)(C)C)c2)CCCO1` [Compound 24], the EC50 was over 2 µg/mL with HIV-1/188-Leu; 0.33 µg/mL (≈ 0.941 µM) with HIV-1/181-Cys; 0.5 µg/mL (≈ 1.43 µM) in the data set on HIV-1/Lys-138; 0.5 µg/mL (≈ 1.43 µM) in the data set with HIV-1/106-Ala; 0.13 µg/mL (≈ 0.371 µM) in the data set with HIV-1(IIIB); 0.6 µg/mL (≈ 1.71 µM) in the data set on HIV-1/103-Asn. Besides, the concentration for a half-maximal effect (EC50) in the data set on HIV-1/100-Ile was 0.48 µg/mL (≈ 1.37 µM). This compound returned a 50% cytotoxic concentration (CC50) in “in vitro” of 9.7 µg/mL (≈ 27.6 µM).
